Several values for one entry are separate records, joined by “and”; a condition that tells them apart may be missing. Equal values may be shown once. Toxic doses and inconclusive results are not listed. Rule for the calls: active = survival T/C of 150% or more; inactive = T/C below 125% in these data.
Tested on: P388 leukemia ip, CD2F1 mice, survival T/C
Assay: NCI In Vivo Anticancer Drug Screen. Data for tumor model P388 Leukemia (intraperitoneal) in CD2F1 (CDF1) mice
Settings: endpoint: median survival time, higher = longer survival
In short: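 Mice carrying the transplanted tumor received test compound or vehicle. Survival was recorded in each group, and the value is the treated-group measurement divided by that of the vehicle-treated control group.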

[1] = dose: 50.0 mg/kg/injection, schedule: Q01DX005 (ip), vehicle: saline with Tween-80
[2] = dose: 100.0 mg/kg/injection, schedule: Q01DX005 (ip), vehicle: saline with Tween-80
[3] = dose: 60.0 mg/kg/injection, schedule: Q01DX005 (ip), vehicle: Klucel (hydroxypropylcellulose) (HPC)
[4] = dose: 120.0 mg/kg/injection, schedule: Q01DX005 (ip), vehicle: Klucel (hydroxypropylcellulose) (HPC)
[5] = dose: 100.0 mg/kg/injection, schedule: Q01DX009 (ip), vehicle: saline with Tween-80
[6] = dose: 200.0 mg/kg/injection, schedule: Q01DX009 (ip), vehicle: saline with Tween-80
[7] = dose: 400.0 mg/kg/injection, schedule: Q01DX009 (ip), vehicle: saline with Tween-80
[8] = dose: 50.0 mg/kg/injection, schedule: Q01DX009 (ip), vehicle: saline with Tween-80
[9] = dose: 50.0 mg/kg/injection, schedule: Q01DX009 (ip), vehicle: saline
[10] = dose: 60.0 mg/kg/injection, schedule: Q01DX005 (ip), vehicle: saline with Tween-80
[11] = dose: 120.0 mg/kg/injection, schedule: Q01DX005 (ip), vehicle: saline with Tween-80
[12] = dose: 240.0 mg/kg/injection, schedule: Q01DX005 (ip), vehicle: saline with Tween-80
[13] = dose: 25.0 mg/kg/injection, schedule: Q01DX009 (ip), vehicle: saline with Tween-80

Measured: T/C

Cc1ccc(N2CCOS(=O)OCC2)cc1
inactive: [1] 101 % of control | [2] 98 % of control | dose: 200.0 mg/kg/injection, schedule: Q01DX005 (ip), vehicle: saline with Tween-80 101 % of control

CN(CS(=O)(=O)c1ccccc1)CS(=O)(=O)c1ccccc1
inactive: [3] 110 % of control | [4] 105 % of control | dose: 240.0 mg/kg/injection, schedule: Q01DX005 (ip), vehicle: Klucel (hydroxypropylcellulose) (HPC) 108 % of control

c1ccc2c(c1)Nc1ccncc1S2
inactive: [5] 100 % of control | dose: 100.0 mg/kg/injection, schedule: Q04DX003 (ip), vehicle: saline with Tween-80 100 % of control | [6] 100 % of control | dose: 200.0 mg/kg/injection, schedule: Q04DX003 (ip), vehicle: saline with Tween-80 100 % of control | [7] 100 % of control

O=C(O)CSC(=O)Nc1ccc(N=Nc2ccccc2)cc1
inactive: [1] 102 % of control | [2] 91 % of control

O=C1CSC(=S)N1/N=C/c1ccc(Cl)c(Cl)c1
inactive: dose: 1.56 mg/kg/injection, schedule: Q01DX009 (ip), vehicle: saline with Tween-80 100 % of control | dose: 3.13 mg/kg/injection, schedule: Q01DX009 (ip), vehicle: saline with Tween-80 110 % of control | dose: 6.25 mg/kg/injection, schedule: Q01DX009 (ip), vehicle: saline with Tween-80 120 % of control

O=C(Nc1ccccc1)OCC1CC1
inactive: [8] 99 % of control | [5] 115 % of control | [6] 96 % of control | [7] 89 % of control

CN(C)CC(CN(C)C)C(=O)c1ccccc1
inactive: dose: 3.12 mg/kg/injection, schedule: Q01DX009 (ip), vehicle: saline 103 % of control and 105 % of control | dose: 6.25 mg/kg/injection, schedule: Q01DX009 (ip), vehicle: saline 105 % of control (2×) and 122 % of control | dose: 12.5 mg/kg/injection, schedule: Q01DX009 (ip), vehicle: saline 107 % of control and 117 % of control and 112 % of control | dose: 25.0 mg/kg/injection, schedule: Q01DX009 (ip), vehicle: saline 117 % of control [middle of 5 runs] | [9] 124 % of control

CC1=CC(=O)C(O)C2(C)C1CC1OC(=O)C(OC3OC(CO)C(O)C(O)C3O)C3C(C)C(O)C4(O)OCC13C42 (stereo unspecified)
inactive: dose: 0.25 mg/kg/injection, schedule: Q01DX005 (ip), vehicle: water 101 % of control | dose: 0.5 mg/kg/injection, schedule: Q01DX005 (ip), vehicle: water 102 % of control

CC(=O)C1CC(=O)c2c(O)ccc(O)c2C1 (stereo unspecified)
inactive: dose: 25.0 mg/kg/injection, schedule: Q01DX009 (ip), vehicle: water 94 % of control | dose: 50.0 mg/kg/injection, schedule: Q01DX009 (ip), vehicle: water 96 % of control | dose: 100.0 mg/kg/injection, schedule: Q01DX009 (ip), vehicle: water 89 % of control | dose: 200.0 mg/kg/injection, schedule: Q01DX009 (ip), vehicle: water 111 % of control | dose: 400.0 mg/kg/injection, schedule: Q01DX009 (ip), vehicle: water 109 % of control

O=C(O)[C@H](Cc1ccccc1)N1C(=O)N[C@@H](Cc2ccccc2)C1=O
inactive: [10] 96 % of control | [11] 104 % of control | [12] 99 % of control

CCCCCCC(O)Cc1cc(-c2ccccc2)nc(=O)[nH]1 (stereo unspecified)
inactive: dose: 15.0 mg/kg/injection, schedule: Q01DX005 (ip), vehicle: saline with Tween-80 97 % of control | [10] 87 % of control | [12] 95 % of control

CCCCOCN(COCCCC)c1ccccn1
inactive: [13] 103 % of control | [8] 100 % of control | [9] 111 % of control | [5] 116 % of control | dose: 100.0 mg/kg/injection, schedule: Q01DX009 (ip), vehicle: saline 122 % of control | [6] 116 % of control | dose: 200.0 mg/kg/injection, schedule: Q01DX009 (ip), vehicle: saline 117 % of control

Nc1nn2nnnc2c2ccccc12
inactive: dose: 25.0 mg/kg/injection, schedule: Q04DX002 (ip), vehicle: saline 107 % of control | dose: 50.0 mg/kg/injection, schedule: Q04DX002 (ip), vehicle: saline 96 % of control | dose: 100.0 mg/kg/injection, schedule: Q04DX002 (ip), vehicle: saline 101 % of control and 89 % of control | dose: 400.0 mg/kg/injection, schedule: Q04DX002 (ip), vehicle: saline 92 % of control

NS(=O)(=O)c1cc([N+](=O)[O-])c(SSc2sc(S(N)(=O)=O)cc2[N+](=O)[O-])s1
inactive: dose: 25.0 mg/kg/injection, schedule: Q04DX003 (ip), vehicle: Klucel (hydroxypropylcellulose) (HPC) 104 % of control | dose: 50.0 mg/kg/injection, schedule: Q04DX003 (ip), vehicle: Klucel (hydroxypropylcellulose) (HPC) 101 % of control | dose: 100.0 mg/kg/injection, schedule: Q01DX001 (ip), vehicle: Klucel (hydroxypropylcellulose) (HPC) 106 % of control | dose: 100.0 mg/kg/injection, schedule: Q04DX003 (ip), vehicle: Klucel (hydroxypropylcellulose) (HPC) 107 % of control | dose: 200.0 mg/kg/injection, schedule: Q01DX001 (ip), vehicle: Klucel (hydroxypropylcellulose) (HPC) 99 % of control

O=C1C=CC(=O)N1c1ccc(N2C(=O)C=CC2=O)cc1
inactive: dose: 0.78 mg/kg/injection, schedule: Q01DX009 (ip), vehicle: distilled water + Tween-80 102 % of control and 115 % of control | dose: 1.56 mg/kg/injection, schedule: Q01DX009 (ip), vehicle: distilled water + Tween-80 103 % of control and 120 % of control | dose: 3.13 mg/kg/injection, schedule: Q01DX009 (ip), vehicle: distilled water + Tween-80 121 % of control and 97 % of control | dose: 6.25 mg/kg/injection, schedule: Q01DX009 (ip), vehicle: distilled water + Tween-80 112 % of control and 118 % of control | dose: 12.5 mg/kg/injection, schedule: Q01DX009 (ip), vehicle: distilled water + Tween-80 105 % of control

Cc1c(Cc2c(C)n(C)n(-c3ccccc3)c2=O)c(=O)n(-c2ccccc2)n1C
inactive: dose: 25.0 mg/kg/injection, schedule: Q01DX009 (ip), vehicle: Klucel (hydroxypropylcellulose) (HPC) 100 % of control and 103 % of control | dose: 50.0 mg/kg/injection, schedule: Q01DX009 (ip), vehicle: Klucel (hydroxypropylcellulose) (HPC) 106 % of control and 89 % of control | dose: 100.0 mg/kg/injection, schedule: Q01DX009 (ip), vehicle: Klucel (hydroxypropylcellulose) (HPC) 99 % of control and 88 % of control

Cc1nc(O)c(-c2ccc(Cl)cc2)s1
inactive: [8] 102 % of control | [5] 103 % of control | [6] 101 % of control

N#Cc1ccc(-c2ccccc2)nc1Cl
inactive: dose: 25.0 mg/kg/injection, schedule: Q01DX005 (ip), vehicle: Klucel (hydroxypropylcellulose) (HPC) 98 % of control | dose: 50.0 mg/kg/injection, schedule: Q01DX005 (ip), vehicle: Klucel (hydroxypropylcellulose) (HPC) 98 % of control | dose: 100.0 mg/kg/injection, schedule: Q01DX005 (ip), vehicle: Klucel (hydroxypropylcellulose) (HPC) 93 % of control | dose: 200.0 mg/kg/injection, schedule: Q01DX005 (ip), vehicle: Klucel (hydroxypropylcellulose) (HPC) 102 % of control

COc1ccc(/C=N/Nc2nnc3c4ccccc4c4ccccc4c3n2)cc1OC
inactive: dose: 50.0 mg/kg/injection, schedule: Q04DX002 (ip), vehicle: suspension in saline 86 % of control | dose: 100.0 mg/kg/injection, schedule: Q04DX002 (ip), vehicle: suspension in saline 89 % of control | dose: 200.0 mg/kg/injection, schedule: Q04DX002 (ip), vehicle: suspension in saline 90 % of control

O=[N+]([O-])O.[Cl-].[Cl-].[NH-]CC[NH-].[NH-]CC[NH-].[Rh+3]
inactive: dose: 12.5 mg/kg/injection, schedule: Q04DX003 (ip), vehicle: distilled water + Tween-80 106 % of control | dose: 25.0 mg/kg/injection, schedule: Q04DX003 (ip), vehicle: distilled water + Tween-80 99 % of control | dose: 50.0 mg/kg/injection, schedule: Q04DX003 (ip), vehicle: distilled water + Tween-80 108 % of control | dose: 100.0 mg/kg/injection, schedule: Q04DX003 (ip), vehicle: distilled water + Tween-80 111 % of control | dose: 200.0 mg/kg/injection, schedule: Q04DX003 (ip), vehicle: distilled water + Tween-80 102 % of control

O=C1CSC(c2cccc(Br)c2)N1c1nncs1 (stereo unspecified)
inactive: [10] 101 % of control | [11] 97 % of control | [12] 93 % of control

O=C(N=C=S)c1ccc(Cl)c(Cl)c1
inactive: [13] 94 % of control | [8] 95 % of control | [5] 95 % of control | [6] 103 % of control

CCOC(=O)c1nnc(-c2ccccc2)nc1Cl
inactive: [3] 103 % of control | [4] 100 % of control
